# From patent US20210244704A1, “Cabazitaxel in mCRPC Patients Previously Treated with Docetaxel and Who Failed a Prior androgen signaling targeted inhibitor Agent” (SANOFI MATURE IP, priority 2019, published 2021)
# Marks after values point to notes of the source that are not given here.
# Test system: HRQL of mCRPC patients
# Test: Same clinical study: health-related quality of life, FACT-P questionnaire
# Assay type: in vivo, human
# Experimental: Pain response was defined as a decrease≥30% from baseline in BPI-SF pain intensity score with no increased analgesic use. HRQL was assessed using the Functional Assessment of Cancer Therapy-Prostate (FACT-P) questionnaire. Pain intensity was defined using item 3 of the validated Brief Pain Inventory-Short Form (BPI-SF), which rates pain at its worst in the last 24 hours on a scale of 0 (no pain) to 10 (worst imaginable pain). Analgesic consumption was reported by local investigators and coded by the World Health Organization's analgesic ladder (0=no analgesic; 1=non-opioid analgesics; 2=opioid analgesics for moderate pain; 3=opioids for severe pain). […] A clinically meaningful improvement or deterioration of total FACT-P score was defined as a difference of ±10 points from baseline. Clinically meaningful changes in HRQL and pain response were confirmed at two consecutive evaluations≥3 weeks apart during the on-treatment period. Survival curves were generated by Kaplan-Meier estimates.
# Time to deterioration was defined on two consecutive evaluations, ≥3 weeks apart as follows: • decrease of ≥10 points from baseline for FACT-P total score • decrease of ≥3 points from baseline for physical, social, emotional and functional well-being • decrease of ≥2 points from baseline for the pain PCS subscale • decrease of ≥9 points from baseline for FACT-G total and FACT-P TOI subscales
# FACT-P, a validated 39-item questionnaire evaluated 5 wellbeing domains: physical (PWB, 0-28), social and family (SWB, 0-28), emotional (EWB, 0-24), functional (FWB, 0-28), and prostate specific (PCS, 0-48).
# Total FACT-P score (PWB+SWB+EWB+FWB+PCS; 0-156), total FACT-G score (PWB+SWB+EWB+FWB; 0-108), FACT-P trial outcome index (PWB+FWB+PCS; 0-104), and PCS-Pain were calculated. The FACT-P overall score ranges from 0 to 156, higher values indicating a higher HRQL
# To control for type I error due to multiple comparisons, a hierarchical testing procedure was applied for the primary and key secondary end points. […] Further tests were stopped once a comparison was found not statistically significant at two-sided alpha level of 0.05. Descriptive statistics for FACT-P and EQ-5D-5L scores were provided for all cycles for which the number of evaluable patients reached ≥20% of the PRO population. For qualitative parameters, proportions of patients with deterioration, no change, and improvement were provided.
# The comparison of changes from baseline on PROs was analyzed using a mixed linear repeated measures model where treatment is a fixed effect variable and subject is a random effect variable. Stratification variables were included in the model as covariates as well as the interaction treatment visit. The least square means by treatment group with the corresponding 95% CI obtained from the mixed model were presented graphically. No adjustments for multiplicity were made.
# Compliance with the planned assessment schedule was calculated at baseline and for each treatment cycle as the proportion of patients still receiving study treatment at this time point. No formal imputation for missing data was carried out and reasons for missing data were not centrally recorded. FACT-P total score was evaluable when >80% of questions were answered. For individual FACT-P subscales, a score was evaluable when >50% of the questions in the subscale domain were answered. If <50% of the questions were missing in any FACT-P subscale, the subscale score could be imputed by prorated subscale scores using the following formula: Prorated subscale score=[Sum of question scores]×[N of questions in subscale][…][N of questions answered].
# [1] = cabazitaxel vs abiraterone or enzalutamide
# [2] = cabazitaxel vs abiraterone or enzalutamide, all cycles
# [3] = cabazitaxel vs abiraterone or enzalutamide, end of treatment visit
structure (smiles),measurement,setting,value
"CO[C@H]1C(=O)[C@]2(C)[C@@H](OC)C[C@H]3OC[C@@]3(OC(C)=O)[C@H]2[C@H](OC(=O)c2ccccc2)[C@]2(O)C[C@H](OC(=O)[C@H](O)[C@@H](NC(=O)OC(C)(C)C)c3ccccc3)C(C)=C1C2(C)C [Cabazitaxel, 4α-acetoxy-2α-benzoyloxy-5β,20-epoxy-1p-hydroxy-7β,10β-dimethoxy-9-oxo-11-taxen-13α-yl (2R,3S)-3-tert-butoxycarbonylamino-2-hydroxy-3-phenylpropionate]",Deterioration in FACT-P from baseline,,22.2%
same,"Emotional well-being, Kaplan-Meier probability of no deterioration at 3 months",3 months,91.1
same,"FACT-G total, Kaplan-Meier probability of no deterioration at 3 months",3 months,82.3
same,"FACT-P total, Kaplan-Meier probability of no deterioration at 3 months",3 months,86.2
same,"Functional well-being, Kaplan-Meier probability of no deterioration at 3 months",3 months,73.7
same,"Pain-related subscale, Kaplan-Meier probability of no deterioration at 3 months",3 months,81.6
same,"Physical well-being, Kaplan-Meier probability of no deterioration at 3 months",3 months,76.0
same,"Prostate-specific concerns, Kaplan-Meier probability of no deterioration at 3 months",3 months,83.6
same,"Social or family well-being, Kaplan-Meier probability of no deterioration at 3 months",3 months,78.7
same,"Trial outcome index, Kaplan-Meier probability of no deterioration at 3 months",3 months,86.1
same,"FACT-P total, deterioration events",Table 6,29.6%
same,"Emotional well-being, time to deterioration HR",[1],0.46**
same,"FACT-G total, time to deterioration HR",[1],0.71
same,"FACT-P total, time to deterioration HR",[1],0.72
same,"Functional well-being, time to deterioration HR",[1],0.81
same,"Pain-related subscale, time to deterioration HR",[1],0.74
same,"Physical well-being, time to deterioration HR",[1],0.82
same,"Prostate-specific concerns, time to deterioration HR",[1],0.68
same,"Social or family well-being, time to deterioration HR",[1],1.03
same,"Trial outcome index, time to deterioration HR",[1],0.65
same,"Pain-related subscale score change from baseline, least squares mean difference",[2],+1.12 to +2.26
same,"Social or family well-being change from baseline, mean difference",[2],−0.37 to −2.25
same,"FACT-P total score change from baseline, mean difference",[3],+4.58
same,"Pain-related subscale score change from baseline, mean difference",[3],+0.62
same,"Social or family well-being change from baseline, mean difference",[3],−0.94
same,"FACT-P total score change from baseline, least squares mean difference","cabazitaxel vs abiraterone or enzalutamide, until Cycle 5",+2.67 to +5.21
same,"Emotional well-being, deterioration events","human, in vivo",16.7%
same,"Emotional well-being, deterioration events n/nT","human, in vivo",18/108
same,"Emotional well-being, median time to deterioration","human, in vivo",NE (NE-NE)
same,"FACT-G total, deterioration events","human, in vivo",27.8%
same,"FACT-G total, deterioration events n/nT","human, in vivo",30/108
same,"FACT-G total, median time to deterioration","human, in vivo",14.8 (8.8-NE) months
same,"FACT-P total, deterioration events n/nT","human, in vivo",32/108
same,"FACT-P total, median time to deterioration","human, in vivo",14.8 (6.3-NE) months
same,"Functional well-being, deterioration events","human, in vivo",36.1%
same,"Functional well-being, deterioration events n/nT","human, in vivo",39/108
same,"Functional well-being, median time to deterioration","human, in vivo",NE (5.9-NE)
same,Improvement in total FACT-P score from baseline,"human, in vivo",25.0%
same,"Pain-related subscale, deterioration events","human, in vivo",33.3%
same,"Pain-related subscale, deterioration events n/nT","human, in vivo",36/108
same,"Pain-related subscale, median time to deterioration","human, in vivo",10.4 (8.5-NE) months
same,"Physical well-being, deterioration events","human, in vivo",36.1%
same,"Physical well-being, deterioration events n/nT","human, in vivo",39/108
same,"Physical well-being, median time to deterioration","human, in vivo",14.8 (4.9-NE) months
same,"Prostate-specific concerns, deterioration events","human, in vivo",32.4%
same,"Prostate-specific concerns, deterioration events n/nT","human, in vivo",35/108
same,"Prostate-specific concerns, median time to deterioration","human, in vivo",14.8 (9.8-NE) months
same,"Social or family well-being, deterioration events","human, in vivo",32.4%
same,"Social or family well-being, deterioration events n/nT","human, in vivo",35/108
same,"Social or family well-being, median time to deterioration","human, in vivo",14.8 (7.9-14.8) months
same,"Trial outcome index, deterioration events","human, in vivo",26.9%
same,"Trial outcome index, deterioration events n/nT","human, in vivo",29/108
same,"Trial outcome index, median time to deterioration","human, in vivo",14.8 (8.5-NE) months
same,"FACT-P total, median time to deterioration","human, in vivo, listed as cabazitaxel",14.8 months
same,Improvement in total FACT-P score from baseline,"±10 points, confirmed",27 patients
